The values below come from patent publication US10435399B2, “HDAC6 inhibitory heterocyclic compound” (TAKEDA PHARMACEUTICAL COMPANY LIMITED, priority 2017, dated 2019).

The assay has as its target T1, HDAC6 enzyme (Homo sapiens, UniProt Q9UBN7).
T1 construct: transducing full length HDAC6 gene into Sf-9 insect cells; GST; purchased SignalChem; host or cells: Sf-9 insect cells
T1 sequence (Q9UBN7 1-1215): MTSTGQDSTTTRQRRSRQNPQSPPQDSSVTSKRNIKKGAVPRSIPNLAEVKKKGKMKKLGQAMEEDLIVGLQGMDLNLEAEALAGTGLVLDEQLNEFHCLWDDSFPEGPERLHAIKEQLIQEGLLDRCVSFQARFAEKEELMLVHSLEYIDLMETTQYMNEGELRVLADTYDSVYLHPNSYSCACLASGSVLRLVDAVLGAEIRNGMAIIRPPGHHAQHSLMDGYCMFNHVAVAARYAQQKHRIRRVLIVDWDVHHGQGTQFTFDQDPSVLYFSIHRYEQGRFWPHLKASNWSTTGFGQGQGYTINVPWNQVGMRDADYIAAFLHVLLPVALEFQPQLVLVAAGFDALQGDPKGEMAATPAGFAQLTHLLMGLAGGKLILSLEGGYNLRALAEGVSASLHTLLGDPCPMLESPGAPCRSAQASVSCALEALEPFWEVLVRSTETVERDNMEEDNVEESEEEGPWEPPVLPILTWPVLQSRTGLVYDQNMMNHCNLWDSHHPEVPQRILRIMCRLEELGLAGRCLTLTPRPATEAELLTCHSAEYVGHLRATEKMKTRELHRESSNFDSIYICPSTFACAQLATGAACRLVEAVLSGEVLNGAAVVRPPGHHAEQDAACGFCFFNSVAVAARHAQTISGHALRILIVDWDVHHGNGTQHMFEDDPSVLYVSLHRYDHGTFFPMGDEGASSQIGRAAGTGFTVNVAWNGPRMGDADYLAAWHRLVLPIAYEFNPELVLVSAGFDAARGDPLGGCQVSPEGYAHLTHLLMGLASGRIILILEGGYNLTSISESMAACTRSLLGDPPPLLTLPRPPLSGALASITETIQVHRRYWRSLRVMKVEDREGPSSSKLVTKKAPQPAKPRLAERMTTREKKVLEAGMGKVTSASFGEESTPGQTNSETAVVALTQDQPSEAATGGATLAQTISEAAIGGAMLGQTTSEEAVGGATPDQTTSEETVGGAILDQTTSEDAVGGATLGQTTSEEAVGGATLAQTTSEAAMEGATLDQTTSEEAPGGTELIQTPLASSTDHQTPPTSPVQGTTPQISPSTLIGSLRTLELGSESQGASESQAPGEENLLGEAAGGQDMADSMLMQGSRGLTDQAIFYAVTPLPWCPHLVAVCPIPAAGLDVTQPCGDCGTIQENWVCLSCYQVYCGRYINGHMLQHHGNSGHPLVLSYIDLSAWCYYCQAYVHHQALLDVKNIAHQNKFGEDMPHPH
The assay is described as follows: HDAC6 enzyme inhibitory activity (HDAC-Glo I/II Assay kit). Format: biochemical. Particulars: 10 μM, wells without enzyme = 100% inhibition; for inhibition at 10 µM: read-out: HDAC6 inhibitory rate (%) (10 μM). In outline: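 Inhibition is calculated as relative activity, taking luminescence in enzyme-free wells as complete inhibition. The enzyme, full-length and GST-purified after Sf-9 expression, was exposed to compound for 60 min at room temperature before a 20 min HDAC-Glo reaction.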

With `Cn1cc(C(=O)N2CCC(F)(F)CC2)c(N2Cc3ccc(-c4nnc(C(F)F)o4)cc3C2=O)n1` [Example 569, 6-(5-(difluoromethyl)-1,3,4-oxadiazol-2-yl)-2-(4-((4,4-difluoropiperidin-1-yl)carbonyl)-1-methyl-1H-pyrazol-3-yl)isoindolin-1-one], the inhibition at 10 µM amounted to 99%.

Regarding `O=C1c2cc(-c3nnc(C(F)F)o3)ccc2CN1N1CCCC1c1ccccn1` (stereo not shown) [Example 570, 6-(5-(difluoromethyl)-1,3,4-oxadiazol-2-yl)-2-(2-(pyridin-2-yl)pyrrolidin-1-yl)isoindolin-1-one], the inhibition at 10 µM is 100%.

As to `O=C1c2cc(-c3nnc(C(F)F)o3)ccc2CN1c1cccn2cc(C(F)(F)F)nc12` [Example 571, 6-(5-(difluoromethyl)-1,3,4-oxadiazol-2-yl)-2-(2-(trifluoromethyl)imidazo[1,2-a]pyridin-8-yl)isoindolin-1-one], the inhibition at 10 µM was found to be 73%. For `O=C1c2cc(-c3nnc(C(F)F)o3)ccc2CN1N1CCC(F)(F)CC1c1ccc(F)cc1` (stereo not drawn) [Example 572, 2-(4,4-difluoro-2-(4-fluorophenyl)piperidin-1-yl)-6-(5-(difluoromethyl)-1,3,4-oxadiazol-2-yl)isoindolin-1-one (optical isomer)], the “HDAC6 inhibitory rate (%) (10 μM)” value amounted to 100%. Turning to `O=C1c2cc(-c3nnc(C(F)F)o3)ccc2CN1N1CCC(F)(F)CC1c1ccc(F)cc1` (stereo not drawn) [Example 573, 2-(4,4-difluoro-2-(4-fluorophenyl)piperidin-1-yl)-6-(5-(difluoromethyl)-1,3,4-oxadiazol-2-yl)isoindolin-1-one (optical isomer)], the “HDAC6 inhibitory rate (%) (10 μM)” value was determined as 99%.

As to `O=C(NCC(F)(F)F)C1CC(F)(F)CCN1N1Cc2ccc(-c3nnc(C(F)F)o3)cc2C1=O` (stereo not drawn) [Example 579, 1-(6-(5-(difluoromethyl)-1,3,4-oxadiazol-2-yl)-1-oxo-1,3-dihydro-2H-isoindol-2-yl)-4,4-difluoro-N-(2,2,2-trifluoroethyl)piperidine-2-carboxamide (Optical Isomer)], the “HDAC6 inhibitory rate (%) (10 μM)” value stood at 100%. Regarding `O=C(NCC(F)(F)F)C1CC(F)(F)CCN1N1Cc2ccc(-c3nnc(C(F)F)o3)cc2C1=O` (stereo not drawn) [Example 580, 1-(6-(5-(difluoromethyl)-1,3,4-oxadiazol-2-yl)-1-oxo-1,3-dihydro-2H-isoindol-2-yl)-4,4-difluoro-N-(2,2,2-trifluoroethyl)piperidine-2-carboxamide (Optical Isomer)], the “HDAC6 inhibitory rate (%) (10 μM)” value is 100%. As to `O=C1c2cc(-c3nnc(C(F)F)o3)ccc2CN1[C@@H]1CCCC(F)(F)[C@H]1NC(=O)C(F)(F)C(F)F` [Example 581, N-((1S,6R)-6-(6-(5-(difluoromethyl)-1,3,4-oxadiazol-2-yl)-1-oxo-1,3-dihydro-2H-isoindol-2-yl)-2,2-difluorocyclohexyl)-2,2,3,3-tetrafluoropropanamide], the inhibition at 10 µM worked out at 99%.

For the compound `CC(C)(CF)OC(=O)N[C@H]1[C@H](N2Cc3ccc(-c4nnc(C(F)F)o4)cc3C2=O)CCCC1(F)F` [Example 582, 1-fluoro-2-methylpropan-2-yl ((1S,6R)-6-(6-(5-(difluoromethyl)-1,3,4-oxadiazol-2-yl)-1-oxo-1,3-dihydro-2H-isoindol-2-yl)-2,2-difluorocyclohexyl)carbamate], the inhibition at 10 µM came to 100%. The same measure, in the same setting: the value for `CC(C)(OC(=O)N[C@H]1[C@H](N2Cc3ccc(-c4nnc(C(F)F)o4)cc3C2=O)CCCC1(F)F)C(F)F` [Example 583, 1,1-difluoro-2-methylpropan-2-yl ((1S,6R)-6-(6-(5-(difluoromethyl)-1,3,4-oxadiazol-2-yl)-1-oxo-1,3-dihydro-2H-isoindol-2-yl)-2,2-difluorocyclohexyl)carbamate] was 99%; that for `Cn1cc(C(=O)c2ccccc2)c(N2Cc3ccc(-c4nnc(C(F)F)o4)cc3C2=O)n1` [Example 592, 2-(4-benzoyl-1-methyl-1H-pyrazol-3-yl)-6-(5-(difluoromethyl)-1,3,4-oxadiazol-2-yl)isoindolin-1-one] was 99%; that for `O=C1c2cc(-c3nnc(C(F)F)o3)cnc2CN1[C@@H]1CCCC[C@H]1Oc1ccccn1` [Example 593, 3-(5-(difluoromethyl)-1,3,4-oxadiazol-2-yl)-6-((1R,2R)-2-(pyridin-2-yloxy)cyclohexyl)-6,7-dihydro-5H-pyrrolo[3,4-b]pyridin-5-one] was 100%. Still for that read-out and setting: to `O=C1c2cc(-c3nnc(C(F)F)o3)ccc2CN1N1CCCCC1c1ccc(F)cc1` (stereo not shown) [Example 594, 6-(5-(difluoromethyl)-1,3,4-oxadiazol-2-yl)-2-(2-(4-fluorophenyl)piperidin-1-yl)isoindolin-1-one] belongs 101%. Still for that read-out and setting: to `O=C1c2cc(-c3nnc(C(F)F)o3)ccc2CN1N1CCC(F)(F)CC1c1ccc(F)cn1` (stereo not shown) [Example 595, 2-(4,4-difluoro-2-(5-fluoropyridin-2-yl)piperidin-1-yl)-6-(5-(difluoromethyl)-1,3,4-oxadiazol-2-yl)isoindolin-1-one] belongs 100%. On to `O=C1c2cc(-c3nnc(C(F)F)o3)ccc2CN1N1CCCC1c1ccccn1` (stereo not drawn) [Example 596, 6-(5-(difluoromethyl)-1,3,4-oxadiazol-2-yl)-2-(2-(pyridin-2-yl)pyrrolidin-1-yl)isoindolin-1-one (optical isomer)], for which the “HDAC6 inhibitory rate (%) (10 μM)” value is recorded as 100%. Same read-out and setting: to `O=C1c2cc(-c3nnc(C(F)F)o3)ccc2CN1N1CCCC1c1ccccn1` (stereo not drawn) [Example 597, 6-(5-(difluoromethyl)-1,3,4-oxadiazol-2-yl)-2-(2-(pyridin-2-yl)pyrrolidin-1-yl)isoindolin-1-one (optical isomer)] belongs 99%. As to `O=C1c2cc(-c3nnc(C(F)F)o3)cnc2CN1[C@@H]1CCCC(F)(F)[C@H]1NC(=O)C(F)(F)C(F)(F)F` [Example 599, N-((1S,6R)-6-(3-(5-(difluoromethyl)-1,3,4-oxadiazol-2-yl)-5-oxo-5,7-dihydro-6H-pyrrolo[3,4-b]pyridin-6-yl)-2,2-difluorocyclohexyl)-2,2,3,3,3-pentafluoropropanamide], the inhibition at 10 µM was 99%.

With `Cc1ccc(C2CC(F)(F)CCN2N2Cc3ccc(-c4nnc(C(F)F)o4)cc3C2=O)nc1` (stereo not shown) [Example 600, 6-(5-(difluoromethyl)-1,3,4-oxadiazol-2-yl)-2-(4,4-difluoro-2-(5-methylpyridin-2-yl)piperidin-1-yl)isoindolin-1-one], the inhibition at 10 µM was 100%. Still for that read-out and setting: the value for `O=C1c2cc(-c3nnc(C(F)F)o3)cnc2CN1[C@@H]1CCCC(F)(F)[C@H]1NC(=O)C(F)(F)C(F)F` [Example 601, N-((1S,6R)-6-(3-(5-(difluoromethyl)-1,3,4-oxadiazol-2-yl)-5-oxo-5,7-dihydro-6H-pyrrolo[3,4-b]pyridin-6-yl)-2,2-difluorocyclohexyl)-2,2,3,3-tetrafluoropropanamide] was 99%; that for `O=C1c2cc(-c3nnc(C(F)F)o3)ccc2CN1N1CCCCC1c1cncc(F)c1` (stereo not shown) [Example 602, 6-(5-(difluoromethyl)-1,3,4-oxadiazol-2-yl)-2-(2-(5-fluoropyridin-3-yl)piperidin-1-yl)isoindolin-1-one] was 101%; that for `O=C1c2cc(-c3nnc(C(F)F)o3)ccc2CN1N1CCCCC1c1cccc(F)c1` (stereo not shown) [Example 603, 6-(5-(difluoromethyl)-1,3,4-oxadiazol-2-yl)-2-(2-(3-fluorophenyl)piperidin-1-yl)isoindolin-1-one] was 100%. On the same count and under the same terms, the value for `O=C(OCc1ccccc1)C1CC(F)(F)CCN1N1Cc2ccc(-c3nnc(C(F)F)o3)cc2C1=O` (stereo not shown) [Example 604, benzyl 1-(6-(5-(difluoromethyl)-1,3,4-oxadiazol-2-yl)-1-oxo-1,3-dihydro-2H-isoindol-2-yl)-4,4-difluoropiperidine-2-carboxylate] was 98%.
